Test in all cases: DTP human tumour cell line panel, 48 h
The subject of experiment [1] is A498 renal.
Experiment [2] has as its system ACHN renal.
The test system of experiment [3] is BT-549 breast.
The subject of experiment [4] is CCRF-CEM leukemia.
Experiment [5] concerns DU-145 prostate.
Experiment [6] has as its system EKVX NSCLC.
The test system of experiment [7] is HS 578T breast.
The subject of experiment [8] is M14 melanoma.
For experiment [9], the system named is MDA-MB-231 breast.
Experiment [10] concerns MDA-MB-435.
Experiment [11] concerns MDA-N.
The subject of experiment [12] is NCI-H226 lung.
Experiment [13] has as its system OVCAR-5 ovarian.
Experiment [14] concerns RPMI-8226 leukemia.
In experiment [15] the test system is SF-539 CNS.
In experiment [16] the test system is SK-MEL-2 melanoma.
The subject of experiment [17] is SK-MEL-5 melanoma.
Experiment [18] deals with SNB-19 CNS.
In experiment [19] the test system is U251 CNS.
Experiment [20] concerns UACC-257 melanoma.

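A five-concentration, 48-hour dose response in 96-well plates underlies each endpoint, interpolated linearly between surrounding concentrations. TGI is the concentration that stops growth completely.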

The term TGI denotes the concentration giving total growth inhibition.

For `Cc1occc1C(=S)Nc1ccc(Cl)c(/C=N/OC(C)(C)C)c1`, the TGI in [1] turned out to be 40.2 µM; in experiment [2] it was 30.6 µM; in [3] it was 32.2 µM; in experiment [4], 53.4 µM; in experiment [5], 48.7 µM; in experiment [6], 43.3 µM. The concentration for total growth inhibition (TGI) was determined as 51.6 µM in experiment [7]; 40.9 µM in experiment [8]; 42.3 µM in experiment [9]; 31.7 µM in [10]; 37 µM in experiment [11]; 32.4 µM in [12]. Besides, the TGI was 31.3 µM in experiment [13]; 47.8 µM in [14]; > 100 µM in experiment [15]; 39.5 µM in experiment [16]; 33.4 µM in experiment [17]; 40.6 µM in experiment [18]. Besides, the figures for the TGI in experiment [19] and in experiment [20] were 28.5 µM and 31.7 µM, respectively.
Consider `CC1CC/C(=C\c2ccc(N(C)C)cc2)C2=C1C(c1ccc(N(C)C)cc1)NC(=S)N2` (stereo not given), for which the TGI in experiment [1], in experiment [2], in experiment [3], in experiment [4], in experiment [5] and in experiment [6] was > 100 µM throughout. Further, the TGI in [7], in experiment [8], in [9], in experiment [10], in experiment [11] and in [12] was > 100 µM throughout. The TGI in experiment [13], in [14], in [15], in experiment [16], in experiment [17] and in experiment [18] was > 100 µM each time. The TGI in [19] and in experiment [20] was > 100 µM each time.
With `CCC1CCN=C(NS(=O)(=O)c2cc(C)c(Cl)cc2S)N1` (stereo not given), the TGI is > 100 µM in experiment [1]; > 100 µM in [2]; 57.2 µM in experiment [3]; 88.1 µM in experiment [4]; > 100 µM in [5]; > 100 µM in experiment [6]. Besides, the TGI in experiment [7] is 92 µM; in experiment [8] it was > 100 µM; in experiment [9], > 100 µM; in experiment [10], 64.2 µM; in experiment [11], > 100 µM; in [12], 73.6 µM. Besides, the TGI was 49.9 µM in [13]; 81.5 µM in experiment [14]; > 100 µM in experiment [15]; > 100 µM in [16]; > 100 µM in [17]; > 100 µM in experiment [18]. Further, the TGI in experiment [19] was 93 µM; in experiment [20] it was > 100 µM.
In the case of `N#Cc1cc([N+](=O)[O-])ccc1NC(=O)/C(=N\NC(=O)c1ccncc1)C(c1cnc2ccc([N+](=O)[O-])cc2n1)[N+](=O)[O-]` (stereo not given), the TGI in [1] worked out at 17.7 µM; in experiment [2] it was 9.14 µM; in experiment [3], 3.55 µM; in [4], 25.6 µM; in experiment [5], 11.8 µM; in [6] it was 25.1 µM. The TGI in experiment [7] amounted to 6.23 µM; in experiment [8] it was 3.23 µM; in experiment [9] it was 5.36 µM; in experiment [10], 2.59 µM; in experiment [11] it was 1.26 µM; in experiment [12] it was 7.58 µM. For the same compound, the TGI in experiment [13] is 22.4 µM; in experiment [14], 41.7 µM; in experiment [15] it was 3.63 µM; in experiment [16], 3.73 µM; in [17], 2.14 µM; in [18], 8.16 µM. In addition, the TGI in experiment [19] worked out at 6.63 µM; in experiment [20], 3.05 µM.
For the compound `O=C1C=CC(=O)c2c1ccc1c3ccccc3n(-c3ccccc3)c21`, the TGI in experiment [1] turned out to be 35.2 µM; in experiment [2], 11.1 µM; in experiment [3] it was 27 µM; in experiment [4], 1.94 µM; in experiment [5] it was 37.2 µM; in experiment [6], 28.7 µM. Besides, the TGI stood at 60.5 µM in experiment [7]; 21.2 µM in [8]; 15.9 µM in experiment [9]; 30.3 µM in [10]; 18.3 µM in [11]; 40 µM in [12]. Moreover, the TGI was determined as 31.7 µM in experiment [13]; 4.59 µM in [14]; 29.7 µM in [15]; 26.6 µM in experiment [16]; 31.2 µM in experiment [17]; 43.7 µM in [18]. Besides, the TGI in [19] worked out at 43.7 µM; in experiment [20], 19.2 µM.
As to `COc1ccc2[nH]cc(C(=O)C(=O)NC34CC5CC(CC(C5)C3)C4)c2c1`, the TGI in experiment [1] is > 76.1 µM; in experiment [2], > 100 µM; in experiment [3], > 100 µM; in experiment [4] it was 29.9 µM; in experiment [5], > 100 µM; in experiment [6], > 100 µM. Besides, the TGI in experiment [7] was > 91.1 µM; in [8] it was > 100 µM; in [9] it was 97.9 µM; in experiment [10], > 100 µM; in [11], > 100 µM; in [12], > 71.1 µM. Further, the TGI in [13] was > 100 µM; in experiment [14] it was 19.8 µM; in [15], > 81.1 µM; in experiment [16] it was > 100 µM; in experiment [17], > 100 µM; in [18], > 100 µM. The figures for the TGI in experiment [19] and in experiment [20] were > 85.3 µM and > 100 µM, respectively.

(Values after PubChem BioAssay (NCI).)
